# Measurements reported in patent US11780893B2, “Kv1.3 blockers” (Zealand Pharma A/S, priority 2019, dated 2023).
# Bridge positions count the residues as written; N and C are the ends. Square brackets hold non-standard residues; d marks the D form. Peptide text beside a SMILES is read from it. Nle = CCCC[C@H](N)C(=O)O
# Molecular target: T1, human Kv1.3 voltage-gated K+ channel (Homo sapiens, UniProt P22001)
# T1 construct: host or cells: CHO-DUKX
# Experiment: cell-based
# Details: inhibition of thallium flux, CHO-DUKX cells with human Kv1.3; read-out: IC50
# T1 sequence (P22001 whole entry): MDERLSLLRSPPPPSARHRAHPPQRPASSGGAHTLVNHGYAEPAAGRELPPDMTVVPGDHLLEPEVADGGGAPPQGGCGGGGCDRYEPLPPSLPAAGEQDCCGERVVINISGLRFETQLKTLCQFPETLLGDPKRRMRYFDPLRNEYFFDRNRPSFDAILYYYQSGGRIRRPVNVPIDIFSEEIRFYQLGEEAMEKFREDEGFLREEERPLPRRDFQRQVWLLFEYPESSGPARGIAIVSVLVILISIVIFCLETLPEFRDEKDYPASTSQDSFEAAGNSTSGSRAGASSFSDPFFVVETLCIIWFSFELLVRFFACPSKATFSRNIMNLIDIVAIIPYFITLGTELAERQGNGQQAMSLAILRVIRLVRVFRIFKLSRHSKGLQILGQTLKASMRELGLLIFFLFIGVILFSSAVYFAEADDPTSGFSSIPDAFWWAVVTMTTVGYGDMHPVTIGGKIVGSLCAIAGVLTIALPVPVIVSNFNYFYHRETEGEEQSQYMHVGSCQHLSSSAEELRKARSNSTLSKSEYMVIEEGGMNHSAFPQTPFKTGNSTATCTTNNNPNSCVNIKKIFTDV
row,Structure (SMILES),IC50
1,"CCCC[C@H](NC(=O)[C@H](CC(=O)O)NC(=O)[C@H](CCCC)NC(=O)[C@@H](N)CO)C(=O)N[C@@H](CCCNC(=N)N)C(=O)N[C@H]1CSSC[C@@H]2NC(=O)[C@H](CCCCN)NC(=O)CNC(=O)[C@H](Cc3ccccc3)NC(=O)[C@H]([C@@H](C)CC)NC(=O)[C@H](CO)NC(=O)CNC(=O)[C@H]([C@@H](C)CC)NC(=O)[C@H](C)NC(=O)[C@H](C)NC(=O)[C@H](CC(C)C)NC(=O)[C@@H]3CSSC[C@@H](C(=O)N[C@@H](Cc4ccc(O)cc4)C(=O)N4CCC[C@H]4C(=O)N[C@@H](CCCNC(=N)N)C(N)=O)NC(=O)[C@H](CCCCN)NC(=O)[C@H](CSSC[C@H](NC(=O)[C@H](CCC(=O)O)NC(=O)[C@H](C(C)C)NC(=O)[C@H](CO)NC(=O)[C@H](C)NC(=O)[C@H](CO)NC1=O)C(=O)N[C@@H](C)C(=O)N[C@@H](CCC(N)=O)C(=O)N[C@@H](CC(C)C)C(=O)N3)NC(=O)[C@H](CCCCN)NC(=O)[C@H](CCCCN)NC(=O)[C@H](CC(N)=O)NC(=O)[C@H](CCSC)NC2=O [Compound 81] (H-S[Nle]D[Nle]RCSASVECAQLCLAAIGSIFGKCMNKKCKCYPR-NH2; disulfide 6-27, 12-32, 16-34)",0.22 nM
2,"CCCC[C@H](NC(=O)[C@H](CC(=O)O)NC(=O)[C@H](CCCC)NC(=O)[C@@H](N)CO)C(=O)N[C@@H](CCCNC(=N)N)C(=O)N[C@H]1CSSC[C@@H]2NC(=O)[C@H](CCCCN)NC(=O)CNC(=O)[C@H](Cc3ccccc3)NC(=O)[C@H]([C@@H](C)CC)NC(=O)[C@H](CO)NC(=O)CNC(=O)[C@H]([C@@H](C)CC)NC(=O)[C@H](C)NC(=O)[C@H](CCCCN)NC(=O)[C@H](CC(C)C)NC(=O)[C@@H]3CSSC[C@@H](C(=O)N[C@@H](Cc4ccc(O)cc4)C(=O)N4CCC[C@H]4C(=O)N[C@@H](CCCNC(=N)N)C(N)=O)NC(=O)[C@H](CCCCN)NC(=O)[C@H](CSSC[C@H](NC(=O)[C@H](CCC(=O)O)NC(=O)[C@H](C(C)C)NC(=O)[C@H](CC(C)C)NC(=O)[C@H](C)NC(=O)[C@H](CO)NC1=O)C(=O)N[C@@H](CCCCN)C(=O)N[C@@H](CCC(N)=O)C(=O)N[C@@H](CCCCN)C(=O)N3)NC(=O)[C@H](CCCCN)NC(=O)[C@H](CCCCN)NC(=O)[C@H](CC(N)=O)NC(=O)[C@H](CCSC)NC2=O [Compound 89] (H-S[Nle]D[Nle]RCSALVECKQKCLKAIGSIFGKCMNKKCKCYPR-NH2; disulfide 6-27, 12-32, 16-34)",2.7 nM
3,"CCCC[C@H](NC(=O)[C@H](CC(=O)O)NC(=O)[C@H](CCCC)NC(=O)[C@@H](N)CO)C(=O)N[C@@H](CCCNC(=N)N)C(=O)N[C@H]1CSSC[C@@H]2NC(=O)[C@H](CCCCN)NC(=O)CNC(=O)[C@H](Cc3ccccc3)NC(=O)[C@H]([C@@H](C)CC)NC(=O)[C@H](CO)NC(=O)CNC(=O)[C@H]([C@@H](C)CC)NC(=O)[C@H](C)NC(=O)[C@H](CCCCN)NC(=O)[C@H](CC(C)C)NC(=O)[C@@H]3CSSC[C@@H](C(=O)N[C@@H](Cc4ccc(O)cc4)C(=O)N4CCC[C@H]4C(=O)N[C@@H](CCCNC(=N)N)C(N)=O)NC(=O)[C@H](CCCCN)NC(=O)[C@H](CSSC[C@H](NC(=O)[C@H](CCC(=O)O)NC(=O)[C@H](C(C)C)NC(=O)[C@H](C(C)C)NC(=O)[C@H](C)NC(=O)[C@H](CO)NC1=O)C(=O)N[C@@H](CCCCN)C(=O)N[C@@H](CCC(N)=O)C(=O)N[C@@H](CCCCN)C(=O)N3)NC(=O)[C@H](CCCCN)NC(=O)[C@H](CCCCN)NC(=O)[C@H](CC(N)=O)NC(=O)[C@H](CCSC)NC2=O [Compound 90] (H-S[Nle]D[Nle]RCSAVVECKQKCLKAIGSIFGKCMNKKCKCYPR-NH2; disulfide 6-27, 12-32, 16-34)",0.19 nM
4,"CCCC[C@@H]1NC(=O)[C@@H]2CSSC[C@H](NC(C)=O)C(=O)N[C@@H](CO)C(=O)N[C@@H](C)C(=O)N[C@@H](CO)C(=O)N[C@@H](C(C)C)C(=O)N[C@@H](CCC(=O)O)C(=O)N[C@H]3CSSC[C@H](NC(=O)[C@H](CCCCN)NC(=O)[C@H](CCCCN)NC(=O)[C@H](CC(N)=O)NC1=O)C(=O)N[C@@H](CCCCN)C(=O)N[C@H](C(=O)N[C@@H](Cc1ccc(O)cc1)C(=O)N1CCC[C@H]1C(=O)N[C@@H](CO)C(N)=O)CSSC[C@H](NC(=O)[C@H](CCCCN)NC(=O)[C@H](CCC(N)=O)NC(=O)[C@H](CCCCN)NC3=O)C(=O)N[C@@H](CC(C)C)C(=O)N[C@@H](CCCCN)C(=O)N[C@@H](C)C(=O)N[C@@H]([C@@H](C)CC)C(=O)NCC(=O)N[C@@H](CO)C(=O)N[C@@H]([C@@H](C)CC)C(=O)N[C@@H](Cc1ccccc1)C(=O)NCC(=O)N[C@@H](CCCCN)C(=O)N2 [Compound 109] (Ac-CSASVECKQKCLKAIGSIFGKC[Nle]NKKCKCYPS-NH2; disulfide 1-22, 7-27, 11-29)",0.96 nM
5,"CCCC[C@@H]1NC(=O)[C@@H]2CSSC[C@H](NC(C)=O)C(=O)N[C@@H](CO)C(=O)N[C@@H](C)C(=O)N[C@@H](CO)C(=O)N[C@@H](C(C)C)C(=O)N[C@@H](CCC(=O)O)C(=O)N[C@H]3CSSC[C@H](NC(=O)[C@H](CCCCN)NC(=O)[C@H](CCCCN)NC(=O)[C@H](CC(N)=O)NC1=O)C(=O)N[C@@H](CCCCN)C(=O)N[C@H](C(=O)N[C@@H](Cc1ccc(O)cc1)C(=O)N[C@@H](CO)C(N)=O)CSSC[C@H](NC(=O)[C@H](CCCCN)NC(=O)[C@H](CCC(N)=O)NC(=O)[C@H](CCCCN)NC3=O)C(=O)N[C@@H](CC(C)C)C(=O)N[C@@H](CCCCN)C(=O)N[C@@H](C)C(=O)N[C@@H]([C@@H](C)CC)C(=O)NCC(=O)N[C@@H](CO)C(=O)N[C@@H]([C@@H](C)CC)C(=O)N[C@@H](Cc1ccccc1)C(=O)NCC(=O)N[C@@H](CCCCN)C(=O)N2 [Compound 110] (Ac-CSASVECKQKCLKAIGSIFGKC[Nle]NKKCKCYS-NH2; disulfide 1-22, 7-27, 11-29)",2.3 nM
6,"CCCC[C@@H]1NC(=O)[C@@H]2CSSC[C@H](NC(C)=O)C(=O)N[C@@H](CO)C(=O)N[C@@H](C)C(=O)N[C@@H](CO)C(=O)N[C@@H](C(C)C)C(=O)N[C@@H](CCC(=O)O)C(=O)N[C@H]3CSSC[C@H](NC(=O)[C@H](CCCCN)NC(=O)[C@H](CCCCN)NC(=O)[C@H](CC(N)=O)NC1=O)C(=O)N[C@@H](CCCCN)C(=O)N[C@H](C(=O)N[C@@H](Cc1ccc(O)cc1)C(=O)NCC(N)=O)CSSC[C@H](NC(=O)[C@H](CCCCN)NC(=O)[C@H](CCC(N)=O)NC(=O)[C@H](CCCCN)NC3=O)C(=O)N[C@@H](CC(C)C)C(=O)N[C@@H](CCCCN)C(=O)N[C@@H](C)C(=O)N[C@@H]([C@@H](C)CC)C(=O)NCC(=O)N[C@@H](CO)C(=O)N[C@@H]([C@@H](C)CC)C(=O)N[C@@H](Cc1ccccc1)C(=O)NCC(=O)N[C@@H](CCCCN)C(=O)N2 [Compound 111] (Ac-CSASVECKQKCLKAIGSIFGKC[Nle]NKKCKCYG-NH2; disulfide 1-22, 7-27, 11-29)",2.1 nM
7,"CCCC[C@@H]1NC(=O)[C@@H]2CSSC[C@H](NC(C)=O)C(=O)N[C@@H](CO)C(=O)N[C@@H](C)C(=O)N[C@@H](CO)C(=O)N[C@@H](C(C)C)C(=O)N[C@@H](CCC(=O)O)C(=O)N[C@H]3CSSC[C@H](NC(=O)[C@H](CCCCN)NC(=O)[C@H](CCCCN)NC(=O)[C@H](CC(N)=O)NC1=O)C(=O)N[C@@H](CCCCN)C(=O)N[C@H](C(=O)N[C@@H](Cc1ccc(O)cc1)C(N)=O)CSSC[C@H](NC(=O)[C@H](CCCCN)NC(=O)[C@H](CCC(N)=O)NC(=O)[C@H](CCCCN)NC3=O)C(=O)N[C@@H](CC(C)C)C(=O)N[C@@H](CCCCN)C(=O)N[C@@H](C)C(=O)N[C@@H]([C@@H](C)CC)C(=O)NCC(=O)N[C@@H](CO)C(=O)N[C@@H]([C@@H](C)CC)C(=O)N[C@@H](Cc1ccccc1)C(=O)NCC(=O)N[C@@H](CCCCN)C(=O)N2 [Compound 112] (Ac-CSASVECKQKCLKAIGSIFGKC[Nle]NKKCKCY-NH2; disulfide 1-22, 7-27, 11-29)",1.7 nM
8,"CCCC[C@@H]1NC(=O)[C@@H]2CSSC[C@H](NC(=O)[C@H](CCCNC(=N)N)NC(C)=O)C(=O)N[C@@H](CO)C(=O)N[C@@H](C)C(=O)N[C@@H](CO)C(=O)N[C@@H](C(C)C)C(=O)N[C@@H](CCC(=O)O)C(=O)N[C@H]3CSSC[C@H](NC(=O)[C@H](CCCCN)NC(=O)[C@H](CCCCN)NC(=O)[C@H](CC(N)=O)NC1=O)C(=O)N[C@@H](CCCCN)C(=O)N[C@H](C(=O)N[C@@H](Cc1ccc(O)cc1)C(=O)N1CCC[C@H]1C(=O)N[C@@H](CCCNC(=N)N)C(=O)O)CSSC[C@H](NC(=O)[C@H](CCCCN)NC(=O)[C@H](CCC(N)=O)NC(=O)[C@H](CCCCN)NC3=O)C(=O)N[C@@H](CC(C)C)C(=O)N[C@@H](CCCCN)C(=O)N[C@@H](C)C(=O)N[C@@H]([C@@H](C)CC)C(=O)NCC(=O)N[C@@H](CO)C(=O)N[C@@H]([C@@H](C)CC)C(=O)N[C@@H](Cc1ccccc1)C(=O)NCC(=O)N[C@@H](CCCCN)C(=O)N2 [Compound 113] (Ac-RCSASVECKQKCLKAIGSIFGKC[Nle]NKKCKCYPR-OH; disulfide 2-23, 8-28, 12-30)",0.34 nM
9,"CCCC[C@H](NC(=O)[C@@H]1CCCN1)C(=O)N[C@@H](CCC(=O)O)C(=O)N[C@@H](CCCC)C(=O)N[C@@H](CCCNC(=N)N)C(=O)N[C@H]1CSSC[C@@H]2NC(=O)[C@H](CCCCN)NC(=O)CNC(=O)[C@H](Cc3ccccc3)NC(=O)[C@H]([C@@H](C)CC)NC(=O)[C@H](CO)NC(=O)CNC(=O)[C@H]([C@@H](C)CC)NC(=O)[C@H](C)NC(=O)[C@H](C)NC(=O)[C@H](CC(C)C)NC(=O)[C@@H]3CSSC[C@@H](C(=O)N[C@@H](Cc4ccc(O)cc4)C(=O)N4CCC[C@H]4C(=O)N[C@@H](CCCNC(=N)N)C(=O)O)NC(=O)[C@H](CCCCN)NC(=O)[C@H](CSSC[C@H](NC(=O)[C@H](CCC(=O)O)NC(=O)[C@H](C(C)C)NC(=O)[C@H](CO)NC(=O)[C@H](C)NC(=O)[C@H](CO)NC1=O)C(=O)N[C@@H](CCCCN)C(=O)N[C@@H](CCC(=O)O)C(=O)N[C@@H](CCCCN)C(=O)N3)NC(=O)[C@H](CCCCN)NC(=O)[C@H](CCCCN)NC(=O)[C@H](CC(N)=O)NC(=O)[C@H](CCCC)NC2=O [Compound 118] (H-P[Nle]E[Nle]RCSASVECKEKCLAAIGSIFGKC[Nle]NKKCKCYPR-OH; disulfide 6-27, 12-32, 16-34)",1.39 nM
